Experimental data as given in US9937235B2, “Lipidated peptides as anti-obesity agents” (USTAV ORGANICKE CHEMIE A BIOCHEMIE AKADEMIE VED CR, V.V.I, priority 2012, dated 2018).
Where a SMILES comes first, the peptide text is derived from it. [ ]: non-standard residue; d: D form. The star is where a group is joined. Phe(4-NO2) = N[C@@H](Cc1ccc([N+](=O)[O-])cc1)C(=O)O; Phe(3,4-Cl2) = N[C@@H](Cc1ccc(Cl)c(Cl)c1)C(=O)O; 1Nal = N[C@@H](Cc1cccc2ccccc12)C(=O)O; Stearoyl = CCCCCCCCCCCCCCCCCC(=O)*; Palmitoyl = CCCCCCCCCCCCCCCC(=O)*; Myristoyl = CCCCCCCCCCCCCC(=O)*; Nle = CCCC[C@H](N)C(=O)O

The compounds below were run on fasted C57BL/6 mice (assay: Food intake in fasted mice after SC administration). Conditions: fasted C57BL/6 mice, 5 mg/kg SC, 45 min.
Assay type: in vivo, mouse
Protocol: Male C57BL/6 mice (An Lab, Prague 4) were bred in the accredited animal facility in the Institute of Organic Chemistry and Biochemistry, Czech Academy of Sciences, Prague, at the Institute of Molecular Genetics, Prague 4, at the temperature of 22±2° C. with access to food and water ad libitum. The day/night cycle was 12/12 hours (light turned on at 6:00 am). Animals were treated according to the Animal Protection Act (Act No. 246/1992). The males were fed standard chow diet St-1 (Mlýn Kocanda, Praha, Czech Republic) which contained 66% saccharides, 25% proteins and 9% lipids with a caloric value of 3.4 kcal/g.
The food was withdrawn 17 hours prior to injection of lipidated peptide and free access to water was maintained. The administration of saline, PrRP or lipidated analogs was performed either by SC injection at doses of 1-10 mg/kg (volume 0.2 ml/mouse), or by ICV using infusion pump (cannulae were inserted into the third brain ventricle 4 days before the experiment following the procedure of Maixnerová et al. (Maixnerová et al., 2011)). The single dose of peptide was 4 nmol/mouse (5 μl/mouse).
Fifteen minutes after the lipidated peptide administration, the mice were given pre-weighed food. The food was then weighed every 30 minutes for 5-10 hours. The administration of every dose was performed at least twice and one group of mice consisted of at least 6 mice. The results were presented as % of food intake as compared with the control group injected with saline.
Statistical evaluation was performed using program Graph-Pad Prism Software (San Diego, Calif., USA), and the one-way ANOVA with a subsequent Dunnettovým post-hoc test. The difference in food intake between mice injected with saline and mice injected with the examined peptide were considered statistically significant at P<0.05.
`CCCCCCCCCCCCCC(=O)N[C@@H](CO)C(=O)N[C@@H](CCCNC(=N)N)C(=O)N[C@@H](C)C(=O)N[C@@H](Cc1c[nH]cn1)C(=O)N[C@@H](CCC(N)=O)C(=O)N[C@@H](Cc1c[nH]cn1)C(=O)N[C@@H](CO)C(=O)N[C@@H](CCCC)C(=O)N[C@@H](CCC(=O)O)C(=O)N[C@H](C(=O)N[C@@H](CCCNC(=N)N)C(=O)N[C@H](C(=O)N1CCC[C@H]1C(=O)N[C@@H](CC(=O)O)C(=O)N[C@H](C(=O)N[C@@H](CC(N)=O)C(=O)N1CCC[C@H]1C(=O)N[C@@H](C)C(=O)N[C@@H](Cc1c[nH]c2ccccc12)C(=O)N[C@@H](Cc1ccc(O)cc1)C(=O)N[C@H](C(=O)NCC(=O)N[C@@H](CCCNC(=N)N)C(=O)NCC(=O)N[C@H](C(=O)N[C@@H](CCCNC(=N)N)C(=O)N1CCC[C@H]1C(=O)N[C@H](C(=O)NCC(=O)N[C@@H](CCCNC(=N)N)C(=O)N[C@@H](Cc1ccccc1)C(N)=O)C(C)C)[C@@H](C)CC)[C@@H](C)O)[C@@H](C)CC)[C@@H](C)O)[C@@H](C)O` [Analog 18] (Myristoyl-SRAHQHS[Nle]ETRTPDINPAWYTGRGIRPVGRF-NH2) was tested, and the “Food intake in mice (5 mg/kg SC) % saline-treated group (45 min)” value was 3%.
For `CCCCCCCCCCCCCCCCCC(=O)N[C@@H](CO)C(=O)N[C@@H](CCCNC(=N)N)C(=O)N[C@@H](C)C(=O)N[C@@H](Cc1c[nH]cn1)C(=O)N[C@@H](CCC(N)=O)C(=O)N[C@@H](Cc1c[nH]cn1)C(=O)N[C@@H](CO)C(=O)N[C@@H](CCCC)C(=O)N[C@@H](CCC(=O)O)C(=O)N[C@H](C(=O)N[C@@H](CCCNC(=N)N)C(=O)N[C@H](C(=O)N1CCC[C@H]1C(=O)N[C@@H](CC(=O)O)C(=O)N[C@H](C(=O)N[C@@H](CC(N)=O)C(=O)N1CCC[C@H]1C(=O)N[C@@H](C)C(=O)N[C@@H](Cc1c[nH]c2ccccc12)C(=O)N[C@@H](Cc1ccc(O)cc1)C(=O)N[C@H](C(=O)NCC(=O)N[C@@H](CCCNC(=N)N)C(=O)NCC(=O)N[C@H](C(=O)N[C@@H](CCCNC(=N)N)C(=O)N1CCC[C@H]1C(=O)N[C@H](C(=O)NCC(=O)N[C@@H](CCCNC(=N)N)C(=O)N[C@@H](Cc1ccccc1)C(N)=O)C(C)C)[C@@H](C)CC)[C@@H](C)O)[C@@H](C)CC)[C@@H](C)O)[C@@H](C)O` [Analog 20] (Stearoyl-SRAHQHS[Nle]ETRTPDINPAWYTGRGIRPVGRF-NH2), the “Food intake in mice (5 mg/kg SC) % saline-treated group (45 min)” value was 3.5%.
In the case of `CCCCCCCCCCCCCCCC(=O)N[C@@H](CO)C(=O)N[C@@H](CCCNC(=N)N)C(=O)N[C@@H](C)C(=O)N[C@@H](Cc1c[nH]cn1)C(=O)N[C@@H](CCC(N)=O)C(=O)N[C@@H](Cc1c[nH]cn1)C(=O)N[C@@H](CO)C(=O)N[C@@H](CCCC)C(=O)N[C@@H](CCC(=O)O)C(=O)N[C@H](C(=O)N[C@@H](CCCNC(=N)N)C(=O)N[C@H](C(=O)N1CCC[C@H]1C(=O)N[C@@H](CC(=O)O)C(=O)N[C@H](C(=O)N[C@@H](CC(N)=O)C(=O)N1CCC[C@H]1C(=O)N[C@@H](C)C(=O)N[C@@H](Cc1c[nH]c2ccccc12)C(=O)N[C@@H](Cc1ccc(O)cc1)C(=O)N[C@H](C(=O)NCC(=O)N[C@@H](CCCNC(=N)N)C(=O)NCC(=O)N[C@H](C(=O)N[C@@H](CCCNC(=N)N)C(=O)N1CCC[C@H]1C(=O)N[C@H](C(=O)NCC(=O)N[C@@H](CCCNC(=N)N)C(=O)N[C@@H](Cc1cccc2ccccc12)C(N)=O)C(C)C)[C@@H](C)CC)[C@@H](C)O)[C@@H](C)CC)[C@@H](C)O)[C@@H](C)O` [Analog 23] (Palmitoyl-SRAHQHS[Nle]ETRTPDINPAWYTGRGIRPVGR[1Nal]-NH2), the “Food intake in mice (5 mg/kg SC) % saline-treated group (45 min)” value is reported as 13%.
With `CCCCCCCCCCCCCC(=O)N[C@@H](CO)C(=O)N[C@@H](CCCNC(=N)N)C(=O)N[C@@H](C)C(=O)N[C@@H](Cc1c[nH]cn1)C(=O)N[C@@H](CCC(N)=O)C(=O)N[C@@H](Cc1c[nH]cn1)C(=O)N[C@@H](CO)C(=O)N[C@@H](CCCC)C(=O)N[C@@H](CCC(=O)O)C(=O)N[C@H](C(=O)N[C@@H](CCCNC(=N)N)C(=O)N[C@H](C(=O)N1CCC[C@H]1C(=O)N[C@@H](CC(=O)O)C(=O)N[C@H](C(=O)N[C@@H](CC(N)=O)C(=O)N1CCC[C@H]1C(=O)N[C@@H](C)C(=O)N[C@@H](Cc1c[nH]c2ccccc12)C(=O)N[C@@H](Cc1ccc(O)cc1)C(=O)N[C@H](C(=O)NCC(=O)N[C@@H](CCCNC(=N)N)C(=O)NCC(=O)N[C@H](C(=O)N[C@@H](CCCNC(=N)N)C(=O)N1CCC[C@H]1C(=O)N[C@H](C(=O)NCC(=O)N[C@@H](CCCNC(=N)N)C(=O)N[C@@H](Cc1ccc(Cl)c(Cl)c1)C(N)=O)C(C)C)[C@@H](C)CC)[C@@H](C)O)[C@@H](C)CC)[C@@H](C)O)[C@@H](C)O` [Analog 25] (Myristoyl-SRAHQHS[Nle]ETRTPDINPAWYTGRGIRPVGR[Phe(3,4-Cl2)]-NH2) the “Food intake in mice (5 mg/kg SC) % saline-treated group (45 min)” value was 13%.
With `CCCCCCCCCCCCCCCC(=O)N[C@@H](CO)C(=O)N[C@@H](CCCNC(=N)N)C(=O)N[C@@H](C)C(=O)N[C@@H](Cc1c[nH]cn1)C(=O)N[C@@H](CCC(N)=O)C(=O)N[C@@H](Cc1c[nH]cn1)C(=O)N[C@@H](CO)C(=O)N[C@@H](CCCC)C(=O)N[C@@H](CCC(=O)O)C(=O)N[C@H](C(=O)N[C@@H](CCCNC(=N)N)C(=O)N[C@H](C(=O)N1CCC[C@H]1C(=O)N[C@@H](CC(=O)O)C(=O)N[C@H](C(=O)N[C@@H](CC(N)=O)C(=O)N1CCC[C@H]1C(=O)N[C@@H](C)C(=O)N[C@@H](Cc1c[nH]c2ccccc12)C(=O)N[C@@H](Cc1ccc(O)cc1)C(=O)N[C@H](C(=O)NCC(=O)N[C@@H](CCCNC(=N)N)C(=O)NCC(=O)N[C@H](C(=O)N[C@@H](CCCNC(=N)N)C(=O)N1CCC[C@H]1C(=O)N[C@H](C(=O)NCC(=O)N[C@@H](CCCNC(=N)N)C(=O)N[C@@H](Cc1ccc(Cl)c(Cl)c1)C(N)=O)C(C)C)[C@@H](C)CC)[C@@H](C)O)[C@@H](C)CC)[C@@H](C)O)[C@@H](C)O` [Analog 26] (Palmitoyl-SRAHQHS[Nle]ETRTPDINPAWYTGRGIRPVGR[Phe(3,4-Cl2)]-NH2) the “Food intake in mice (5 mg/kg SC) % saline-treated group (45 min)” value was 5%.
With `CCCCCCCCCCCCCCCC(=O)N[C@@H](CO)C(=O)N[C@@H](CCCNC(=N)N)C(=O)N[C@@H](C)C(=O)N[C@@H](Cc1c[nH]cn1)C(=O)N[C@@H](CCC(N)=O)C(=O)N[C@@H](Cc1c[nH]cn1)C(=O)N[C@@H](CO)C(=O)N[C@@H](CCCC)C(=O)N[C@@H](CCC(=O)O)C(=O)N[C@H](C(=O)N[C@@H](CCCNC(=N)N)C(=O)N[C@H](C(=O)N1CCC[C@H]1C(=O)N[C@@H](CC(=O)O)C(=O)N[C@H](C(=O)N[C@@H](CC(N)=O)C(=O)N1CCC[C@H]1C(=O)N[C@@H](C)C(=O)N[C@@H](Cc1c[nH]c2ccccc12)C(=O)N[C@@H](Cc1ccc(O)cc1)C(=O)N[C@H](C(=O)NCC(=O)N[C@@H](CCCNC(=N)N)C(=O)NCC(=O)N[C@H](C(=O)N[C@@H](CCCNC(=N)N)C(=O)N1CCC[C@H]1C(=O)N[C@H](C(=O)NCC(=O)N[C@@H](CCCNC(=N)N)C(=O)N[C@@H](Cc1ccc([N+](=O)[O-])cc1)C(N)=O)C(C)C)[C@@H](C)CC)[C@@H](C)O)[C@@H](C)CC)[C@@H](C)O)[C@@H](C)O` [Analog 29] (Palmitoyl-SRAHQHS[Nle]ETRTPDINPAWYTGRGIRPVGR[Phe(4-NO2)]-NH2) the “Food intake in mice (5 mg/kg SC) % saline-treated group (45 min)” value was 0.7%.
`CCCCCCCCCCCCCC(=O)N[C@@H](CO)C(=O)N[C@@H](Cc1c[nH]cn1)C(=O)N[C@@H](CCC(N)=O)C(=O)N[C@@H](CCCNC(=N)N)C(=O)N1CCC[C@H]1C(=O)N[C@@H](C)C(=O)N[C@@H](CC(=O)O)C(=O)N[C@H](C(=O)N[C@@H](Cc1c[nH]cn1)C(=O)N[C@@H](Cc1c[nH]c2ccccc12)C(=O)N[C@@H](Cc1ccc(O)cc1)C(=O)N1CCC[C@H]1C(=O)N[C@@H](CCCNC(=N)N)C(=O)NCC(=O)N[C@@H](CCCC)C(=O)N[C@@H](Cc1ccccc1)C(=O)N1CCC[C@H]1C(=O)N[C@H](C(=O)N[C@H](C(=O)NCC(=O)N[C@@H](CCCNC(=N)N)C(=O)N[C@H](C(=O)N[C@H](C(=O)N[C@@H](C)C(=O)N[C@@H](CCCNC(=N)N)C(=O)N[C@@H](CC(N)=O)C(=O)NCC(=O)N[C@@H](CCC(=O)O)C(=O)N[C@H](C(=O)N[C@@H](CO)C(=O)N[C@@H](CCCNC(=N)N)C(=O)O)C(C)C)[C@@H](C)O)[C@@H](C)CC)[C@@H](C)CC)[C@@H](C)O)[C@@H](C)O` [Analog 31] (Myristoyl-SHQRPADTHWYPRG[Nle]FPTIGRITARNGEVSR-OH; C-terminus assumed) was tested, and the “Food intake in mice (5 mg/kg SC) % saline-treated group (45 min)” value was 100%.
With `CCCCCCCCCCCCCCCC(=O)N[C@@H](CO)C(=O)N[C@@H](CCCNC(=N)N)C(=O)N[C@@H](C)C(=O)N[C@@H](Cc1c[nH]cn1)C(=O)N[C@@H](CCC(N)=O)C(=O)N[C@@H](Cc1c[nH]cn1)C(=O)N[C@@H](CO)C(=O)N[C@@H](CCCC)C(=O)N[C@@H](CCC(=O)O)C(=O)N[C@H](C(=O)N[C@@H](CCCNC(=N)N)C(=O)N[C@H](C(=O)N1CCC[C@H]1C(=O)N[C@@H](CC(=O)O)C(=O)N[C@H](C(=O)N[C@@H](CC(N)=O)C(=O)N1CCC[C@H]1C(=O)N[C@@H](C)C(=O)N[C@@H](Cc1c[nH]c2ccccc12)C(=O)N[C@@H](Cc1ccc(O)cc1)C(=O)N[C@H](C(=O)NCC(=O)N[C@@H](CCCNC(=N)N)C(=O)NCC(=O)N[C@H](C(=O)N[C@@H](CCCNC(=N)N)C(=O)N1CCC[C@H]1C(=O)N[C@H](C(=O)NCC(=O)N[C@@H](CCCNC(=N)N)C(=O)N[C@@H](Cc1ccc(O)cc1)C(N)=O)C(C)C)[C@@H](C)CC)[C@@H](C)O)[C@@H](C)CC)[C@@H](C)O)[C@@H](C)O` [Analog 35] (Palmitoyl-SRAHQHS[Nle]ETRTPDINPAWYTGRGIRPVGRY-NH2) the “Food intake in mice (5 mg/kg SC) % saline-treated group (45 min)” value was 22%.
